Measurements: ChEMBL document CHEMBL5212743, “Selectivity Literature for EUbOPEN Chemogenomics Library wave 3” (2023)

Key:
[1] = target: Serine/threonine-protein kinase 33 (Homo sapiens, UniProt Q9BYT3); test: Selectivity interaction (Enzymatic assay) EUB0000608a STK33
[2] = target: Serine/threonine-protein kinase PLK1 (Homo sapiens, UniProt P53350); test: Selectivity interaction (Enzymatic assay) EUB0000608a PLK1
[3] = target: Serine/threonine-protein kinase PLK3 (Homo sapiens, UniProt Q9H4B4); test: Selectivity interaction (Enzymatic assay) EUB0000608a PLK3
[4] = target: Cyclin-G-associated kinase (Homo sapiens, UniProt O14976); test: Selectivity interaction (Enzymatic assay) EUB0000608a GAK
[5] = target: Serine/threonine-protein kinase PLK4 (Homo sapiens, UniProt O00444); test: Selectivity interaction (Enzymatic assay) EUB0000608a PLK4
Serine/threonine-protein kinase PLK4, sequence (O00444 whole entry): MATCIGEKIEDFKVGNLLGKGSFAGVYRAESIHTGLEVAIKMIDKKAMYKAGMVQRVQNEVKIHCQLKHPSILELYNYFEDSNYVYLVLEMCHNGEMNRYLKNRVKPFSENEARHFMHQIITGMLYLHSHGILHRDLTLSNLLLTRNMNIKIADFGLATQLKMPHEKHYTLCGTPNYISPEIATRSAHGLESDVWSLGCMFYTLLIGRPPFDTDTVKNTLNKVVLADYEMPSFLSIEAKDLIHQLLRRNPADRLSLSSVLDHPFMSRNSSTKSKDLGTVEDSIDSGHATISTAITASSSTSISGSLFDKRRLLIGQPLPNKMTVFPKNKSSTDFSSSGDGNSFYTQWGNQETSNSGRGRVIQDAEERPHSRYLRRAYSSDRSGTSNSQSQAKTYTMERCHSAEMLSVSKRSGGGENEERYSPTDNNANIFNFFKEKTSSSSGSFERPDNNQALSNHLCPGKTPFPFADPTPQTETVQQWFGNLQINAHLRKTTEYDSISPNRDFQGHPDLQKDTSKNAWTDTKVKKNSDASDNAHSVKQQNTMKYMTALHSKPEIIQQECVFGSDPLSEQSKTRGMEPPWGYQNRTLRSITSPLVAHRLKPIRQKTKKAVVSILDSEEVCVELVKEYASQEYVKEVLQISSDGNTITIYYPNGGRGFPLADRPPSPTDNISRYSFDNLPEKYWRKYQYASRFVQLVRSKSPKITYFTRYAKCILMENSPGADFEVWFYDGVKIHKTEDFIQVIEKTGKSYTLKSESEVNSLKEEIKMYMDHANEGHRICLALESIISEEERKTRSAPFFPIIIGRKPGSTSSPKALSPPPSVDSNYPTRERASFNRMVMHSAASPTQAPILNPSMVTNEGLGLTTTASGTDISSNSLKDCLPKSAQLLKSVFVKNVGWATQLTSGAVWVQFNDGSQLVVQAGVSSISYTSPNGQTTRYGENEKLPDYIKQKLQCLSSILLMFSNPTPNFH

Serine/threonine-protein kinase PLK1, sequence (P53350 whole entry): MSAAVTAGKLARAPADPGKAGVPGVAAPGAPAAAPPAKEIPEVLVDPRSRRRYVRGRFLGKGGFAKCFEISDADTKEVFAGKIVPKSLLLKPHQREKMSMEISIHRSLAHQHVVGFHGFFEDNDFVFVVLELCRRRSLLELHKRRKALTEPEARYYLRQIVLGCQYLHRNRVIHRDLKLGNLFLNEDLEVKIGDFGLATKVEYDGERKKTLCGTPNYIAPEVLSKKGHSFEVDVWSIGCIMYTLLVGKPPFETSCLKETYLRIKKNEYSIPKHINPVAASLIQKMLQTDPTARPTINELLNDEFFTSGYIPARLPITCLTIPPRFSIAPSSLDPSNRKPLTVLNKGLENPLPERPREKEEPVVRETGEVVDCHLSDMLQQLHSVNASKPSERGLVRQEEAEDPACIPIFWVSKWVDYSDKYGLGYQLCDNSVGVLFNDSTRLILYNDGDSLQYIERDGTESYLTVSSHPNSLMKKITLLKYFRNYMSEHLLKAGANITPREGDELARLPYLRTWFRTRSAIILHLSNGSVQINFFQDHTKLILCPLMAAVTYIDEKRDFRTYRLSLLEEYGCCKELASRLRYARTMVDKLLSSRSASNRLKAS
Serine/threonine-protein kinase PLK3, sequence (Q9H4B4 whole entry): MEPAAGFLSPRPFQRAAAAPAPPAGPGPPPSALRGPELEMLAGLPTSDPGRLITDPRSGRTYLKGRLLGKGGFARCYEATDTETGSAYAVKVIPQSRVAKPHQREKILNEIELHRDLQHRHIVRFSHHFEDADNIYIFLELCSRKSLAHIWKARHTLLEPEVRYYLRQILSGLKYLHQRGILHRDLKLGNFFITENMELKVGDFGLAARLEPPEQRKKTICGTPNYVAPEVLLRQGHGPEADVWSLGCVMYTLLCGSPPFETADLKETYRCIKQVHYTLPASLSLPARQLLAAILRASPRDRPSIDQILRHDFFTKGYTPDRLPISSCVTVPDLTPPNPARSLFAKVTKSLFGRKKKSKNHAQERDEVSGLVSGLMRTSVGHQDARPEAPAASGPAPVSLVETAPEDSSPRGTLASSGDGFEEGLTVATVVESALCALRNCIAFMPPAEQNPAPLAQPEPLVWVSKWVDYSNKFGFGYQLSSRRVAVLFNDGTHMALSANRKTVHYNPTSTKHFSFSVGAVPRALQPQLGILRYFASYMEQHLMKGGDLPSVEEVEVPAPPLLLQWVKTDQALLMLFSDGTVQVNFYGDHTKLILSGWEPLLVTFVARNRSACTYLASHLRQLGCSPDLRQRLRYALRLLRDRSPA
Cyclin-G-associated kinase, sequence (O14976 whole entry): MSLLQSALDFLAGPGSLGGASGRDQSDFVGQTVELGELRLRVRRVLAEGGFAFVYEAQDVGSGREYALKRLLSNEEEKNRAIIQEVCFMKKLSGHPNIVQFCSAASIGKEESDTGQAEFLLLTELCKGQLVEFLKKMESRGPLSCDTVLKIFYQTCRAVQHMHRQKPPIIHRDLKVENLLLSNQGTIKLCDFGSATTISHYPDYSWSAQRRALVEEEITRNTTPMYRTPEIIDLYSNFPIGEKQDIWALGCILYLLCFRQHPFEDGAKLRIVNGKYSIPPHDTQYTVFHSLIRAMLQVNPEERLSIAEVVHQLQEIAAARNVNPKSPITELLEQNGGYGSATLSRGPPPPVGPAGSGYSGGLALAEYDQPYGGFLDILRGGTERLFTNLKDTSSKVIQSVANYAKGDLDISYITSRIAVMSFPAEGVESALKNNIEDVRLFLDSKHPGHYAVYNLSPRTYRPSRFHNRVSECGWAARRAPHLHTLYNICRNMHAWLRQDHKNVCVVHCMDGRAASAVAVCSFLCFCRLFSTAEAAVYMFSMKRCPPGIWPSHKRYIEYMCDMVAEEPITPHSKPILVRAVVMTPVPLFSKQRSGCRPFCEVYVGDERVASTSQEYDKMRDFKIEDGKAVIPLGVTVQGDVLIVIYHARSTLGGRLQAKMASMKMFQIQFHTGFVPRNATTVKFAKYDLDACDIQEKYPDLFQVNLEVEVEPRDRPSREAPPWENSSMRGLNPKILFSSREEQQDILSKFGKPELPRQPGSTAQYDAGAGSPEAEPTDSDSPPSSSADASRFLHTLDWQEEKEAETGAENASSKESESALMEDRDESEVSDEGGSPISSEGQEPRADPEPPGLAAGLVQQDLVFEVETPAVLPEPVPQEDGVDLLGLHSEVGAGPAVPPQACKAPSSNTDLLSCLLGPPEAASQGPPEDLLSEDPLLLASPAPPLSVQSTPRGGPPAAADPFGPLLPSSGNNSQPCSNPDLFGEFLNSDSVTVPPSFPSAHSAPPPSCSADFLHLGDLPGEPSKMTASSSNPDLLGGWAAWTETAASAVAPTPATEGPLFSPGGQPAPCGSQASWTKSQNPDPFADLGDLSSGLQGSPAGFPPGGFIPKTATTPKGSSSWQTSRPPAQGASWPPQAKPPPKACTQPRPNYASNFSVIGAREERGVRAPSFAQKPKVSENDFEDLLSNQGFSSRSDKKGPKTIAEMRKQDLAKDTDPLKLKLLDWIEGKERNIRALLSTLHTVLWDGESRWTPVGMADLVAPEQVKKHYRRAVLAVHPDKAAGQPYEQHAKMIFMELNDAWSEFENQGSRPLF
Serine/threonine-protein kinase 33, sequence (Q9BYT3 whole entry): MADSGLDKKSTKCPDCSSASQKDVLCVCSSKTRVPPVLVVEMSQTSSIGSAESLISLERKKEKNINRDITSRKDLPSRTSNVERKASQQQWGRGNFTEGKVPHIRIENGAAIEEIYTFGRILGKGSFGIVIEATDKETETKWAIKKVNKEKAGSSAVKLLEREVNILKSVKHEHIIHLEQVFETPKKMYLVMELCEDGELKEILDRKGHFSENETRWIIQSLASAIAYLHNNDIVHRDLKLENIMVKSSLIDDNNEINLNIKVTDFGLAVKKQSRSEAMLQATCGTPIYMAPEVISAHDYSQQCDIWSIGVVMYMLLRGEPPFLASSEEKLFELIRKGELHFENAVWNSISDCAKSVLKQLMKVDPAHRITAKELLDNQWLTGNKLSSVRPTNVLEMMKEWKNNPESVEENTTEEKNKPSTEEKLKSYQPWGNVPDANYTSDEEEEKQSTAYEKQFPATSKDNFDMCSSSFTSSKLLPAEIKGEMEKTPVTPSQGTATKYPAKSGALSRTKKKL

For `CCOc1cc(N2CCC(O)CC2)ccc1Nc1ncc2c(n1)N(C1CCCC1)CCC(=O)N2C`, the IC50 [1] was 5000 nM, the IC50 [2] was 61 nM and the IC50 [3] was 1600 nM. It also gave an IC50 [4] of 140 nM and an IC50 [5] of 3100 nM.
